According to PMC10254045, “Elaboration of the Effective Multi-Target Therapeutic Platform for the Treatment of Alzheimer’s Disease Based on Novel Monoterpene-Derived Hydroxamic Acids” (International Journal of Molecular Sciences, 2023):
Read-outs that look alike come from different tables or passages of the source.

Legend:
[1] = biological target: T1, HDAC6 (Homo sapiens, UniProt Q9UBN7); assay: Fluorimetric measurement of HDAC6 activity (FLUOR DE LYS kit); assay type: biochemical
T1 construct: purchased Enzo Life Sciences
T1 sequence (Q9UBN7 1-1215): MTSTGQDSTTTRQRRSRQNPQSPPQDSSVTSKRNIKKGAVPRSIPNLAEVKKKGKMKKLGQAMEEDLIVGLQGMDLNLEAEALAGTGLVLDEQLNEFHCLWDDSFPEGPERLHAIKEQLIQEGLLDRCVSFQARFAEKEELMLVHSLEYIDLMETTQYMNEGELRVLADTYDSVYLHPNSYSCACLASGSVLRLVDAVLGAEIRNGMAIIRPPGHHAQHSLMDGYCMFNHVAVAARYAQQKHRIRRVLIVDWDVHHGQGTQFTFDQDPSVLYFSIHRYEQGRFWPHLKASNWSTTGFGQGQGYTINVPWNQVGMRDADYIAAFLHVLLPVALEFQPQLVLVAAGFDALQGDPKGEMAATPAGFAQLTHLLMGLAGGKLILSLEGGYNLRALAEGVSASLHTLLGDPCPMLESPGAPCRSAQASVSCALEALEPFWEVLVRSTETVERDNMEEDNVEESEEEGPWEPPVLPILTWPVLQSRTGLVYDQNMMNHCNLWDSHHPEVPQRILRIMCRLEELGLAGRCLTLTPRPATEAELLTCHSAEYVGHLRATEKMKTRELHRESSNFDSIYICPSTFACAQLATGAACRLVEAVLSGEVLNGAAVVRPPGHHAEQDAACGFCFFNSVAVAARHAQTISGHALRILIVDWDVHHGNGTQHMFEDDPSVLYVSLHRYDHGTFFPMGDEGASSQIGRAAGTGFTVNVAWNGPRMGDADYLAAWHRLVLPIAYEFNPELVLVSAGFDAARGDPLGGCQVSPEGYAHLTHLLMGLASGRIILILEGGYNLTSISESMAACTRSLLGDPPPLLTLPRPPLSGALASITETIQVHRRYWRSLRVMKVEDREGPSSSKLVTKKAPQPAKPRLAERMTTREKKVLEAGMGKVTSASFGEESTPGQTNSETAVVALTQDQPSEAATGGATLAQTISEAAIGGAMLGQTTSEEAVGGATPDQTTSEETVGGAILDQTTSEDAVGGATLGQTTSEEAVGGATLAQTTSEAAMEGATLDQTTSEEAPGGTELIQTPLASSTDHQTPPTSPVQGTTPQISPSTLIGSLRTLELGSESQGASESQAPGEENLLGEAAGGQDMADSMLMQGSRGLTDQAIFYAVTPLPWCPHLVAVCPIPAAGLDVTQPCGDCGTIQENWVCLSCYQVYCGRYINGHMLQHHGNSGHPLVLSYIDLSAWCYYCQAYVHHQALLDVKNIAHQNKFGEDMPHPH

[2] = biological target: T2, β-amyloid peptide 1-42 (Aβ1-42) (Homo sapiens, UniProt P05067); assay: Thioflavin T fluorescent analysis of Aβ1-42 aggregation; assay type: biochemical; conditions: 48 h, compounds 100 µM, Thioflavin T 10 µM, 48 h registration; read-out: prevention of the aggregation of Aβ1-42
T2 construct: the pathological form of β-amyloid peptide 1-42 (Sigma Aldrich); purchased Sigma Aldrich
T2 sequence (P05067 672-713 limits assumed): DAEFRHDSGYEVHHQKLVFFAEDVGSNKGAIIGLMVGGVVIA
Text: The aggregation process of β-amyloid peptide 1-42 (Aβ1-42), caused by hydrophobic interactions of peptide monomers and, as a consequence, the formation of the most toxic polymorphic structure-oligomeric fragments of Aβ, was detected using the fluorescent dye Thioflavin T (Figure 4a). This method is the most widely used for selective staining and the identification of amyloid aggregates, which is confirmed by a large number of works. Fluorescence analysis using Thioflavin T made it possible to monitor the aggregation process of the pathological form of β-amyloid peptide 1-42 (Sigma Aldrich, St. Louis, MI, USA). The experimental protocol was carried out similarly to that described in [58] with some modifications. The registration of changes in the fluorescence of thioflavin T (10 µM, Sigma Aldrich, St. Louis, MI, USA) was performed on a multifunctional tablet analyzer Cytation™3 (BioTek Instruments, Inc., Winooski, VT, USA) at λex = 450 nm, λem = 480 nm. The fluorescence intensity of the solution without Aβ1-42 was subtracted from the fluorescence values of solutions containing protein, due to the need to subtract the background fluorescence.

[3] = DPPH radical scavenging activity; conditions: Trolox equivalent; compounds and Trolox 100 µM
Text: (§1) DPPH is a stable chromogen radical, which is widely used to assess the antioxidant activity of biological objects, in particular when searching for potential therapeutic agents used to maintain the redox balance in the body and treat pathologies associated with the action of free radicals. In turn, the oxygen radical absorbance capacity (ORAC) analysis is based on the removal by potential antioxidants of peroxyl radicals generated by AAPH (2,2’-axobis-2-methyl-propanimidamide, dihydrochloride), preventing the degradation of the fluorescein probe.
The measurement of the antiradical activity of synthesized hydroxamic acids was carried out using the method described in [150]. The studied compounds were introduced into the wells of a 96-well black tablet (the final concentration was 100 microns), after which a freshly prepared solution of 2,2-diphenyl-1-picrylhydrazyl (Sigma Aldrich, St. Louis, Missouri, USA) was added. After the incubation time had elapsed, the DPPH radical-scavenging activity was measured using a multifunctional Cytation™3 tablet analyzer (BioTek Instruments, Inc., Winooski, VT, USA) at λ = 517 nm by the difference in the reduction of the DPPH radical peak between control samples containing an equivalent volume of solvent and samples with the substances under study.

[4] = Oxygen radical absorbance capacity (ORAC); conditions: Trolox equivalent; compounds and Trolox 100 µM, AAPH 12 mM
Text: as §1
The analysis of the absorption capacity of oxygen radicals was performed as described in [151], with some modifications. Trolox (Sigma Aldrich, St. Louis, MI, USA) was used as a standard antioxidant. The studied compounds were introduced into the holes of a 96-hole black tablet with a transparent bottom with Trolox (25 µL; the final concentration was 100 µM) and fluorescein (150 µL; the final concentration was 80 nM, Sigma Aldrich, St. Louis, MI, USA). The resulting mixture was shaken and incubated for 30 min at 37 °C. After a 30-min incubation period, a solution of 2,2’-azobis (2-amidinopropane) dihydrochloride (AAPH) (25 µL; final concentration of 12 mM, Sigma Aldrich, St. Louis, MI, USA) was quickly introduced into all wells of the tablet. The tablet was immediately placed in a multifunctional tablet analyzer Cytation™ 3 (BioTek Instruments, Inc., Winooski, VT, USA). The fluorescence intensity was recorded for 300 min at λex = 480 nm, λem = 520 nm with an interval of every 5 min. In the same experiment, calibration solutions for the reference antioxidant Trolox were used to confirm the validity of the use of this method (0, 6.25, 12.5, 25, 50 and 100 µM).

[5] = Cell viability, MTT test; assay type: cell-based; conditions: human, SH-SY5Y neuroblastoma cells, 24-h exposure, read-out: IC50 cytotoxic action
Method: The culture of human neuroblastoma cells (defined as SH-SY5Y) was cultured in DMEM with the addition of embryonic bovine serum (10%), 2 mM glutamine (DiaM, Moscow, Russia) and penicillin-streptomycin (100 U/Ml–100 µg/mL, PanEco, Moscow, Russia) in conditions of 5% CO2 in the air at 37 °C. Upon reaching 80% confluence, cells in the amount of 1 × 10^4 were placed in 96-well transparent plates and incubated under the same conditions for 24 h. After the incubation time, the cells were exposed to a 24-h exposure to various concentrations of hydroxamic acids dissolved in dimethyl sulfoxide (range from 1 to 100 µM). An equivalent volume of solvent was used as a control (final DMSO content = 1%).
Cell survival analysis was performed using MTT test. To do this, 3-(4,5-dimethylthiazol-2-yl)-2,5-diphenyltetrazolium bromide (MTT, 5 mg/mL, DiaM, Moscow, Russia) was introduced into all wells and incubated at 37 °C for 2 h to restore metabolically active cells of the yellow tetrazolium salt MTT to purple formazane crystals. The resulting formazane was then re-suspended in 200 µL DMSO per well. The optical density was recorded using a multifunctional Cytation™3 flatbed analyzer (BioTek Instruments, Inc., Winooski, VT, USA) at λ = 530 nm.

[6] = HDAC6, values as listed in Table S1 beside docking score, read-out: IC50

IC50 [1, 6] [µM]	inhibition at 100 µM [2] [%]	melting point [°C]	IC50 ([1]; Table 1, read-out: HDAC6-Inhibitory Effect, IC50) [µM]	SMILES	DPPH value (TE) [3] [TE]	ORAC value (TE) [4] [TE]	IC50 at 24 h [5] [µM]
7.74	60.1	167.2 to 167.6		C=C(C)[C@@H]1CC=C(CNC(=O)c2ccc(/C=C/C(=O)NO)cc2)CC1 [Compound 38a, (S,E)-4-(3-(hydroxyamino)-3-oxoprop-1-en-1-yl)-N-((4-(prop-1-en-2-yl)cyclohex-1-en-1-yl)methyl)benzamide]	0.66	1.00	> 100
	≤ 40	110.8	0.74 ± 0.02	C=C(C)[C@@H]1CC=C(CNC(=O)CCCCCCCC(=O)NO)CC1 [Compound 31, (S)-N1-hydroxy-N9-((4-(prop-1-en-2-yl)cyclohex-1-en-1-yl)methyl)nonanediamide]	0.30	0.82	89.4 ± 3.92
8.03	≤ 40	108.6		CC1(C)[C@H]2CC[C@@H](CNC(=O)c3ccc(/C=C/C(=O)NO)cc3)[C@@H]1C2 [Compound 38c, N-(((1S,2R,5S)-6,6-dimethylbicyclo[3.1.1]heptan-2-yl)methyl)-4-((E)-3-(hydroxyamino)-3-oxoprop-1-en-1-yl)benzamide]	0.70	1.02	90.5 ± 2.9
